Test results published in ChEMBL document CHEMBL4725370, “Discovery of Proteolysis-Targeting Chimera Molecules that Selectively Degrade the IRAK3 Pseudokinase” (J Med Chem, 2020).
Active and inactive are the calls of the source. The rule behind the calls is not given here.

Assays:
[1] = biological target: Cereblon/Ikaros (Homo sapiens) (UniProt Q96SW2+Q13422); assay: Protac activity at CRBN/IKZF1 in LPS-induced human THP1 cells assessed as induction of IKZF1 degradation at 0.1 uM measured after 6 hrs by HPLC-MS based global proteomic analysis; format: cell-based; details: THP-1
[2] = system: THP-1; assay: Selectivity ratio of Kd(app) for displacement of polymer supported probe 25 binding to IRAK4 in human THP-1 cell lysates to Kd(app) for displacement of polymer supported probe 25 binding to IRAK3 in human THP-1 cell lysates
[3] = biological target: T1, NT-3 growth factor receptor (Homo sapiens, UniProt Q16288); assay: Inhibition of NTRK3 (unknown origin)
Target sequence in this assay (Q16288 whole entry): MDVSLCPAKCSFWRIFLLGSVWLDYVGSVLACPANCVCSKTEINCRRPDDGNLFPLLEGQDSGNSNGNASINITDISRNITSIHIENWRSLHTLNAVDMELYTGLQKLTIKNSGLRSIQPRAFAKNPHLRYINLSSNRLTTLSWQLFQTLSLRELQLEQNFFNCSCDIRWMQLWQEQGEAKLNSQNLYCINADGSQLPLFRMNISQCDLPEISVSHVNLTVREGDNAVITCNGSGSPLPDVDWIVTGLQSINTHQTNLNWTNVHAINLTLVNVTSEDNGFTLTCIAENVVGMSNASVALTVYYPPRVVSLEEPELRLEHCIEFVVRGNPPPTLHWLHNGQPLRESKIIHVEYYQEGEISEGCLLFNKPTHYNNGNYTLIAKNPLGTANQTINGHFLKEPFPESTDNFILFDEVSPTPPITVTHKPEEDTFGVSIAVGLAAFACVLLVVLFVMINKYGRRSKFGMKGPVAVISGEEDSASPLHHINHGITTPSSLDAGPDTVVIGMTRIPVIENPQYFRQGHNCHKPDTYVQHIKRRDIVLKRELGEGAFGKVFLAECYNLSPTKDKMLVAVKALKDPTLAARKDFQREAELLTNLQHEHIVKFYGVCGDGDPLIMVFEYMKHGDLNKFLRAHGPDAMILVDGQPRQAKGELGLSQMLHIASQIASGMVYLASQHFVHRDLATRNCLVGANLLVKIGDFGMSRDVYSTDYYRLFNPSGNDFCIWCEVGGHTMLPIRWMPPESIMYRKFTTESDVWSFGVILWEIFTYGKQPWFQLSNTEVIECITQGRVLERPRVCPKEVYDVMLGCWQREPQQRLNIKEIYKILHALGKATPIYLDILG

[4] = biological target: Delta(24)-sterol reductase (Homo sapiens) (UniProt Q15392); assay: Displacement of polymer supported probe 25 binding to DHCR24 in human THP-1 cell lysates at 30 uM preincubated for 45 mins under shaking condition followed by probe addition and measured after 30 mins by mass spectrometry based chemoproteomic analysis relative to control; format: subcellular
[5] = biological target: T2, Interleukin-1 receptor-associated kinase 3 (Homo sapiens, UniProt Q9Y616); assay: Inhibition of kinase tracer 236 binding to recombinant human full-length GST-tagged IRAK3 expressed in insect cells by Lanthascreen Eu kinase binding assay
T2 sequence (Q9Y616 whole entry): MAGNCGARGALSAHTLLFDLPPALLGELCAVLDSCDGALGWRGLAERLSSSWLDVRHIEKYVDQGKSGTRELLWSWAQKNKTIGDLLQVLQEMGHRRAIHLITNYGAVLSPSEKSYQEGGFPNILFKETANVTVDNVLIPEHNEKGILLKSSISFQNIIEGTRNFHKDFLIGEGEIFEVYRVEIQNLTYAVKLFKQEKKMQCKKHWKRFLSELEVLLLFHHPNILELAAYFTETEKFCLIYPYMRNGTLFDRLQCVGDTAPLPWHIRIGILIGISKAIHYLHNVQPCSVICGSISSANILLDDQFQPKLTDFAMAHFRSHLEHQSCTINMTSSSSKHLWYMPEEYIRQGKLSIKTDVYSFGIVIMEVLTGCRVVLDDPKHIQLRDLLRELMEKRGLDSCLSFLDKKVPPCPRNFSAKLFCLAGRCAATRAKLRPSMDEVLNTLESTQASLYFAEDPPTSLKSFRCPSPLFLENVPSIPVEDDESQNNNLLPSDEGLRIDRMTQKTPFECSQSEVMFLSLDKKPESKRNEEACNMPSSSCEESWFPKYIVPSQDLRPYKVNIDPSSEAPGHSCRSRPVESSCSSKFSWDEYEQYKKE

[6] = biological target: T1, NT-3 growth factor receptor; assay: Inhibition of NTRK3 (unknown origin) at 0.1 uM relative to control
Target sequence in this assay (Q16288 32-839 limits assumed): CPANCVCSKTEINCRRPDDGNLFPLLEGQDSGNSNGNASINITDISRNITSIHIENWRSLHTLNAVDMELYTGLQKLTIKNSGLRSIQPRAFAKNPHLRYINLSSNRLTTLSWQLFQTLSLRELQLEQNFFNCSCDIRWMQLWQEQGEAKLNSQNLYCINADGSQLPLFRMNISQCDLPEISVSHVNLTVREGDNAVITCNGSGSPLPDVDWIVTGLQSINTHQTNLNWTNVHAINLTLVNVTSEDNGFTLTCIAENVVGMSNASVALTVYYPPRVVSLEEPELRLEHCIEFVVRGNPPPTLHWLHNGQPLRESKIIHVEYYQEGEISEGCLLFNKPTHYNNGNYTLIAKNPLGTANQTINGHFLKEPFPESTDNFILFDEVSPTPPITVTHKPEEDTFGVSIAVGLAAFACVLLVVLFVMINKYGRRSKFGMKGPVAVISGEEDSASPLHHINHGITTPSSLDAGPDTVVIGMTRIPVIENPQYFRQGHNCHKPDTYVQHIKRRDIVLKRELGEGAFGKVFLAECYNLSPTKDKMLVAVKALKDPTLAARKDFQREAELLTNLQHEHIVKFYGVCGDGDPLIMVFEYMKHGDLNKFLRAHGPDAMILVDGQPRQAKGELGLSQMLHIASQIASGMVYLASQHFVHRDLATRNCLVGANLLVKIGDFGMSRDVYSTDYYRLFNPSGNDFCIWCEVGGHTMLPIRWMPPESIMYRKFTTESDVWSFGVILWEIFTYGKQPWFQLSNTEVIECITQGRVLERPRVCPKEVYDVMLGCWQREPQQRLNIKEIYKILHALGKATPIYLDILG

[7] = biological target: Protein cereblon (Homo sapiens, UniProt Q96SW2); assay: Inhibition of CRBN (unknown origin)
Protein cereblon, sequence (Q96SW2 whole entry): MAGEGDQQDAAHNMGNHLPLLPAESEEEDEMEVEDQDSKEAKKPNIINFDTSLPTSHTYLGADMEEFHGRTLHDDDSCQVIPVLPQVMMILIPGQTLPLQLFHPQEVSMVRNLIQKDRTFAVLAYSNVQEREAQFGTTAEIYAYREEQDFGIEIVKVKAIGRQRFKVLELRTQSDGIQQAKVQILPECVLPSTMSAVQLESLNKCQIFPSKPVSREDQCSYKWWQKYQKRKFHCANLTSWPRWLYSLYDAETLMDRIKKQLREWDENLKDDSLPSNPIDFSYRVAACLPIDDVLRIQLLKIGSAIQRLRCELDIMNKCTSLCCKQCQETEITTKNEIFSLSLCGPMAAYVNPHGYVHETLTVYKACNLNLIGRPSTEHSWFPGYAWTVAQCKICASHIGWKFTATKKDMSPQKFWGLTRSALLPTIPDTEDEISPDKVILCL

[8] = biological target: T3, Protein cereblon/Interleukin-1 receptor-associated kinase 3 (Homo sapiens, UniProt Q9Y616+Q96SW2); assay: Protac activity at CRBN/IRAK3 in LPS-induced human THP1 cells assessed as induction of IRAK3 degradation at 0.1 uM measured after 6 hrs by HPLC-MS based global proteomic analysis relative to control; format: cell-based; details: THP-1
T3 sequence (Q96SW2 whole entry, looked up, one chain of several): as the sequence (Q96SW2 whole entry) above

[9] = biological target: Serine/threonine-protein kinase haspin (Homo sapiens) (UniProt Q8TF76); assay: Inhibition of GSG2 (unknown origin) at 0.1 uM relative to control
Serine/threonine-protein kinase haspin (Homo sapiens), sequence (Q8TF76 whole entry): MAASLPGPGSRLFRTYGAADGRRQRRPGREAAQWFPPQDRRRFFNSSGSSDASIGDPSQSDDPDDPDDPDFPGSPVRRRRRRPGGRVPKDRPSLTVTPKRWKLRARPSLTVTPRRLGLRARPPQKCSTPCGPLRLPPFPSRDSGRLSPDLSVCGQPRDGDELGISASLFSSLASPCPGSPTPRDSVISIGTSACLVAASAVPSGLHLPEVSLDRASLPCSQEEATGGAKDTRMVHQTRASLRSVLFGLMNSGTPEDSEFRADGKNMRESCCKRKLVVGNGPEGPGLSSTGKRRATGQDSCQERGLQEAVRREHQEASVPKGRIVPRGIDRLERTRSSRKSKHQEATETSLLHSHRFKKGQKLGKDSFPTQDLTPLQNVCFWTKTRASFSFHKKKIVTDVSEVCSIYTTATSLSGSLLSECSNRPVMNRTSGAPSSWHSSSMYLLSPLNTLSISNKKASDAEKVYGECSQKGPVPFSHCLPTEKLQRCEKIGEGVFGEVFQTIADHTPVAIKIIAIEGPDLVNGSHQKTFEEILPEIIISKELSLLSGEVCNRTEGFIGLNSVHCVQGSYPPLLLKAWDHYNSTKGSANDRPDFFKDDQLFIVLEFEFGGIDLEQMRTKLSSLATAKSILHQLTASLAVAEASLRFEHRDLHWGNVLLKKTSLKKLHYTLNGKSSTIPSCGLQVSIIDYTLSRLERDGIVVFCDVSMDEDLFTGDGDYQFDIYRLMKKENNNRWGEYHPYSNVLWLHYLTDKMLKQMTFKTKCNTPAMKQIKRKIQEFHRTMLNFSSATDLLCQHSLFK

[10] = biological target: Cyclin-dependent kinase 8 (Homo sapiens, UniProt P49336); assay: Displacement of polymer supported probe 25 binding to CDK8 in human THP-1 cell lysates preincubated for 45 mins under shaking condition followed by probe addition and measured after 30 mins by mass spectrometry based chemoproteomic analysis; format: subcellular; details: read-out: Kd(app)
Cyclin-dependent kinase 8, sequence (P49336 whole entry): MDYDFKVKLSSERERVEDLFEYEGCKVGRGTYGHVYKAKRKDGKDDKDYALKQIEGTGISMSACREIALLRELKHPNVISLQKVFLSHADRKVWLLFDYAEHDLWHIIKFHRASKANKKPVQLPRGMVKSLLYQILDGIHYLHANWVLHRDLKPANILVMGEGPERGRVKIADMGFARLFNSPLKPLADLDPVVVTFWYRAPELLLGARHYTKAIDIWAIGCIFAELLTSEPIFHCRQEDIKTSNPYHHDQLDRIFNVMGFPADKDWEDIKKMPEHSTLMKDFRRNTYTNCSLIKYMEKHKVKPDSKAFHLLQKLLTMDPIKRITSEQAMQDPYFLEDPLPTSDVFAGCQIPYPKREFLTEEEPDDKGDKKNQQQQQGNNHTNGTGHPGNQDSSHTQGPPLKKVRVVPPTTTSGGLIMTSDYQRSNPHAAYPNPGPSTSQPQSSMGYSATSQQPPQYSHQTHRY

[11] = system: THP-1; assay: Selectivity ratio of Kd(app) for displacement of polymer supported probe 25 binding to IRAK1 in human THP-1 cell lysates to Kd(app) for displacement of polymer supported probe 25 binding to IRAK3 in human THP-1 cell lysates
[12] = biological target: Interleukin-1 receptor-associated kinase 1 (Homo sapiens, UniProt P51617); assay: Inhibition of recombinant human N-terminal GST-tagged IRAK1 (194 to 712 residues) expressed in baculovirus expression system using 5-FAM-KKKVSRSGLYRSPSMPENLNRPR-COOH as substrate measured after 240 mins by mobility shift assay
Interleukin-1 receptor-associated kinase 1, sequence (P51617 whole entry, the tested form may be a part): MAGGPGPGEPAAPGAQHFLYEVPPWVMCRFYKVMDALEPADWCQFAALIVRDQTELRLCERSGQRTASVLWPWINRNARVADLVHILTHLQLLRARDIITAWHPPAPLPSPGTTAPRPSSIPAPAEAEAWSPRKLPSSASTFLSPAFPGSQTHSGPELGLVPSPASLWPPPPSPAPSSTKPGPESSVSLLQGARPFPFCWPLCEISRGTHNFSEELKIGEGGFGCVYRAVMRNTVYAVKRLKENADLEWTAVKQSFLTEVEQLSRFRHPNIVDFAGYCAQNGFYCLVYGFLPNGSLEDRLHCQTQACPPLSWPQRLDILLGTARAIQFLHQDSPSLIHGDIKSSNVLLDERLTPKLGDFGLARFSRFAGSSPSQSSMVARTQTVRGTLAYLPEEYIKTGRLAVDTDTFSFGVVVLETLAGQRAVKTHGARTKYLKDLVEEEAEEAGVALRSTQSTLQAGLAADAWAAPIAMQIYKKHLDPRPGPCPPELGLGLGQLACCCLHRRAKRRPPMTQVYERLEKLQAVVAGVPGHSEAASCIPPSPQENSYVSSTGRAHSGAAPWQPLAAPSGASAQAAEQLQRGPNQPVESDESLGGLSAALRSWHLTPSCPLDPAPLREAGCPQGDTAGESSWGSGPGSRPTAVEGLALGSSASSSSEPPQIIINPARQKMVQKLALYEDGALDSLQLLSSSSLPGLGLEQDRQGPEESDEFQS

[13] = biological target: T3, Protein cereblon/Interleukin-1 receptor-associated kinase 3; assay: Protac activity at CRBN/IRAK3 in human THP1 cells assessed as induction of IRAK3 degradation at 0.1 uM measured after 6 hrs in presence of 10 uM thalidomide by Western blot analysis; format: cell-based; details: THP-1
[14] = biological target: Interleukin-1 receptor-associated kinase 3 (Homo sapiens) (UniProt Q9Y616); assay: Inhibition of IRAK3 (unknown origin) at 0.1 uM relative to control
[15] = biological target: Protein cereblon/Delta(24)-sterol reductase (Homo sapiens) (UniProt Q15392+Q96SW2); assay: Protac activity at CRBN/DHCR24 in LPS-induced human THP1 cells assessed as induction of DHCR24 degradation at 0.1 uM measured after 6 hrs by HPLC-MS based global proteomic analysis relative to control; format: cell-based; details: THP-1
[16] = biological target: Cyclin-C/Cyclin-dependent kinase 19 (Homo sapiens) (UniProt Q9BWU1+P24863); assay: Inhibition of CDK11/cyclin C (unknown origin) at 0.1 uM relative to control; format: protein-complex assay
[17] = biological target: CDK8/Cyclin C (Homo sapiens) (UniProt P49336+P24863); assay: Inhibition of CDK8/cyclin C (unknown origin) at 0.1 uM relative to control; format: protein-complex assay
[18] = Octanol/buffer partition coefficient, log D of the compound at pH 7.4 by shake-flask method; format: physicochemical
[19] = biological target: Cyclin-C/Cyclin-dependent kinase 19 (Homo sapiens, UniProt P24863+Q9BWU1); assay: Inhibition of CDK11/cyclin C (unknown origin); format: protein-complex assay
Cyclin-C/Cyclin-dependent kinase 19, sequence (Q9BWU1 whole entry): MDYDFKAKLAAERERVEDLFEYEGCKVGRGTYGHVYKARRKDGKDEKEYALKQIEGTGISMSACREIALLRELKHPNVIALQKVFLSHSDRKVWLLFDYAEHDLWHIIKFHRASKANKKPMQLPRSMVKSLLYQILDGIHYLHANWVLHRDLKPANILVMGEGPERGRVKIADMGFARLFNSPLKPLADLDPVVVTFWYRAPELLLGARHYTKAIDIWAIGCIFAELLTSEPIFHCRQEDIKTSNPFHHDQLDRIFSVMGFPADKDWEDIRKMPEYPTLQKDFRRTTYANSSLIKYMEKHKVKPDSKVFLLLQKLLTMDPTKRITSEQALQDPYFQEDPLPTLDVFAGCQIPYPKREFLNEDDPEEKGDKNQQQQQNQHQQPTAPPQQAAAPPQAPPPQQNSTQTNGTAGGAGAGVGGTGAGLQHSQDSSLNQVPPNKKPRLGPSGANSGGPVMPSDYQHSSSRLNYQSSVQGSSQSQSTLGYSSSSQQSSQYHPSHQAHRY
Cyclin-C/Cyclin-dependent kinase 19, sequence (P24863 whole entry): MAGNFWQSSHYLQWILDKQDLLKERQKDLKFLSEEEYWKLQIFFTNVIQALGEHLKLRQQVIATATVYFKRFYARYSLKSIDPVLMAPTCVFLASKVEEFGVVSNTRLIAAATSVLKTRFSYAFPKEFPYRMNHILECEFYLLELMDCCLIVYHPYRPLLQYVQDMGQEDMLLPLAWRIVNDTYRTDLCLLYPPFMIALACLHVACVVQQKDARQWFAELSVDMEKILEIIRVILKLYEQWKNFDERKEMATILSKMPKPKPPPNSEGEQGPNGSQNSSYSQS

[20] = biological target: T3, Protein cereblon/Interleukin-1 receptor-associated kinase 3; assay: Protac activity at CRBN/IRAK3 in human THP1 cells assessed as induction of IRAK3 degradation at 0.1 uM measured after 2 to 72 hrs by Western blot analysis; format: cell-based; details: THP-1, time hrs 2-72
[21] = biological target: T4, Interleukin-1 receptor-associated kinase 4 (Homo sapiens, UniProt Q9NWZ3); assay: Displacement of polymer supported probe 25 binding to IRAK4 in human THP-1 cell lysates preincubated for 45 mins under shaking condition followed by probe addition and measured after 30 mins by mass spectrometry based chemoproteomic analysis; format: subcellular; details: read-out: Kd(app)
T4 sequence (Q9NWZ3 whole entry): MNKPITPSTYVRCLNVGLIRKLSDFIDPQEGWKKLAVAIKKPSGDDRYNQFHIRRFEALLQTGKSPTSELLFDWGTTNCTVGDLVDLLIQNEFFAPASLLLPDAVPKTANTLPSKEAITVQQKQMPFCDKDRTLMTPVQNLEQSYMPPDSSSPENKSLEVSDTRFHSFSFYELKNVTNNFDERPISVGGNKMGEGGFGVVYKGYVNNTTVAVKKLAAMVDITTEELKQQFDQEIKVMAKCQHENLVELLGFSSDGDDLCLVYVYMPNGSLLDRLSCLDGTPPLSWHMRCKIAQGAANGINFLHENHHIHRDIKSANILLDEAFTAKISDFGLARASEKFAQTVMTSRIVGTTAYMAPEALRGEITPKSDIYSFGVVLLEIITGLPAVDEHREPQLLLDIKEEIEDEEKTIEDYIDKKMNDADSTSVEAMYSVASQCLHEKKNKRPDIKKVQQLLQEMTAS

In the case of `CC(C)c1ccn2ncnc(N[C@H]3CC[C@@H](N4CCN(C(=O)CCC(=O)N5CCC(CCN6CCN(c7ccc8c(c7)C(=O)N(C7CCC(=O)NC7=O)C8=O)CC6)CC5)CC4)CC3)c12` (stereo partly specified), the Activity [1] is reported as “inactive”, the Selectivity ratio [2] is reported as 105 and the IC50 [3] is reported as 100 nM. The inhibition [4] was < 40%, the IC50 [5] was 5 nM and the inhibition [6] was 60%. The IC50 [7] was 460 nM, the fold change (FC) [8] was -1.8 and the inhibition [9] was 57%. For the same compound, the Kd [10] was 1400 nM, the Selectivity ratio [11] was 82 and the IC50 [12] was 2300 nM. For the same compound, the Activity [13] was “inactive”, the inhibition [14] was 93% and the fold change (FC) [15] was -1.5. It also gave an inhibition [16] of 82%, an inhibition [17] of 69% and a logD [18] of 3.1. For the same compound, the IC50 [19] was 16 nM, the Activity [20] was “Active” and the Kd [21] was 3600 nM.
